Data on 13 compounds can be found in ChEMBL document CHEMBL2396598, “Anti-neuroinflammatory diarylheptanoids from the rhizomes of Dioscorea nipponica” (Bioorg Med Chem Lett, 2013).

One data set concerns BV-2. The data set is described as follows: Antineuroinflammatory activity in mouse BV2 cells assessed as inhibition of LPS-induced nitric oxide production after 24 hrs by Griess assay. The note with it: BV-2, 24 h. It counts as functional, cell-based. On the technique in general: Griess reagent forms a coloured azo dye with nitrite.
Data set [1] can be described thus: Cytotoxicity against LPS-treated mouse BV2 cells assessed as cell viability at 20 uM relative to control. As to conditions: read-out: Activity. It counts as cell-based, BV-2.

By IC50 is commonly meant the point on the concentration scale where inhibition reaches its midpoint. In the case of `O=C(/C=C/C=C/c1ccc(O)c(O)c1)CCc1ccc(O)c(O)c1`, the IC50 in the data set on BV-2 turned out to be 7.84 µM. Also, the viability at 20 µM in data set [1] is 24.6%.
Consider `COc1cc(CC[C@H]2C[C@@H](O)C[C@@H](c3ccc(O)c(OC)c3)O2)ccc1O`, for which the IC50 in the data set on BV-2 turned out to be 95.1 µM. Further, the viability at 20 µM in data set [1] worked out at 109%.
As to `COc1cc(CC[C@H]2C[C@H](O)C[C@@H](c3ccc(O)c(OC)c3)O2)ccc1O`, in the data set with BV-2, the IC50 was found to be 45.9 µM. Further, the viability at 20 µM in data set [1] came to 116%.
Regarding `Oc1ccc(CC[C@H]2C[C@@H](O)C[C@@H](c3ccc(O)cc3)O2)cc1`, the IC50 in the data set on BV-2 worked out at 39.7 µM. Moreover, the viability at 20 µM in data set [1] amounted to 96.8%.
As for `Oc1ccc(CC[C@H]2C[C@H](O)C[C@@H](c3ccc(O)cc3)O2)cc1`, the IC50 with BV-2 stood at 38.1 µM. Further, the viability at 20 µM in data set [1] came out at 95.6%.
The corresponding values for `Oc1ccc(/C=C/[C@H]2C[C@H](O)C[C@@H](c3ccc(O)cc3)O2)cc1` are 18.6 µM and 91.4%.
Turning to `COc1cc(/C=C/C(=O)/C=C/c2ccc(O)cc2)ccc1O`, in the data set on BV-2, the IC50 was found to be 5.99 µM. Further, the viability at 20 µM in data set [1] is 25.5%.
For the compound `COc1ccc(/C=C/C=C/C(=O)CCc2ccc(O)cc2)cc1`, the IC50 in the data set with BV-2 is 8.44 µM. Besides, the viability at 20 µM in data set [1] turned out to be 18.5%.
For `O=C(/C=C/C=C/c1ccc(O)c(O)c1)CCc1ccc(O)cc1`, in that order: 14.4 µM and 104%.
For `O=C(/C=C/c1ccc(O)cc1)C[C@H](O)CCc1ccc(O)cc1`, in that order: 57.1 µM and 99.4%.
For `COc1cc(CC[C@@H](O)C[C@H](O)CCc2ccc(O)c(O)c2)ccc1O`, in that order: 89.7 µM and 99.2%.
Take `COc1cc(/C=C/C=C/C(=O)CCc2ccc(O)cc2)ccc1O`: in the data set on BV-2, the IC50 worked out at 13.4 µM. The viability at 20 µM in data set [1] was 115%.
Turning to `CNC(=N)NCCC[C@H](N)C(=O)O` [TILARGININE], in data set [1], the viability at 20 µM is 103%.
